Experimental data reported in US20020160441A1, “Protein elongation factor 2 as a target for antifungal and antiparasitic agents” (Merck & Co., Inc., priority 1998, published 2002).

Assays:
[1] = biological target: T1, Saccharomyces cerevisiae EF2 in crude S30 extracts (Saccharomyces cerevisiae, UniProt P32324); assay: Competitive binding assay, Saccharomyces S30 extract; settings: for displacement of ^3H-Compound I binding (in words): unlabelled competitor
T1 construct: A Saccharomyces cerevisiae strain containing wild-type EF2 is inoculated into medium; endogenous in cells; host or cells: Saccharomyces cerevisiae strain with wild-type EF2, S30 extract
Experimental: (§1) A competitive assay can be performed involving the displacement of a radiolabeled compound with specificity for pathogen EF2 such as ^3H-Compound I binding to Saccharomyces cerevisiae EF2 in crude S30 extracts. As proof of the specificity of inhibitor found with the S30 binding assay, binding competition can also be performed with purified EF2 in the presence of washed ribosomes
In a microfuge tube 100 μl assay mixture contains: 10 μg yeast S-30, 25 μM GTP-γ-s (0.5 μl of 5 mM stock), dilutions of agent to be examined for ability to compete for binding and Buffer B to bring volume to 98 μl. Vortex and incubate at room temperature 5 min. Add 2 μl ^3H-Compound I (1:20 dilution in water). Vortex and incubate for 20-30 min.
To a Sephadex G-75 column was pre-soaked in Buffer A (20 gm/400 ml) several hours. Mini columns were packed with G-75 precisely to the mark line (˜1.6 ml ) and allowed to settle by washing with 2 ml Buffer A.
The 100μl incubated mixtures are loaded onto G-75 columns (no collection) As soon as the sample has entered the gel bed (approximately 20 sec), 0.7 ml Buffer A is added and eluate is collected in mini vials 3 ml Scintiverse is added and vials counted.
Saccharomyces S30 extract: A Saccharomyces cerevisiae strain containing wild-type EF2 is inoculated into medium containing in g/l: 10 g Bacto Yeast Extract, 20 g Bacto Peptone, 20 g dextrose and 60 mg adenine and incubated with shaking at 30° C. until mid to late logarithmic phase (A600˜2). The cells are harvested and washed twice with water. Pellets may be stored at −70° C. indefinitely prior to disruption. For breakage, cells are resuspended in 2 vol of buffer containing 50 mM Tris-Cl pH 7.4, 10% (wt/vol) glycerol, 2 mM MgCl2, 2 mM dithiothreitol, 1 mM phenylmethylsulfonyl fluoride and broken by prolonged agitation with acid-washed 0.5 mm glass beads. The supernatant is centrifuged at […] for 15 min to sediment cell debris.

[2] = test system: mammalian cell S30 extracts; assay: Binding assay with mammalian cell S30 extracts
Source text: as §1
(§2) The binding is displaceable by unlabelled L-793,422, sordarin and analogs. No binding is seen with mammalian cell or wheat germ S30 extracts.

wheat germ S30 extracts = assay: Binding assay with wheat germ S30 extracts
Source text: as §1, §2

[3] = biological target: T2, purified Saccharomyces EF2 (Saccharomyces cerevisiae, UniProt P32324); assay: Binding assay with purified components, Saccharomyces EF2; settings: for binding of labelled compound (in words): yeast EF2
T2 construct: The ribosomes and EF2 are both prepared by published methods; endogenous in cells; host or cells: Saccharomyces cerevisiae; EF2 purified by the method of Skogerson, Methods in Enzymology LX
Experimental: (§3) This assay involves the same procedure as disclosed above substituting 0.4 A260 units salt-washed S. cerevisiae ribosomes and 1 pmol purified EF2 for the 10 μg S30 in the above assay. The ribosomes and EF2 are both prepared by published methods (L. Skogerson, Methods in Enzymology, Vol LX,p676-685).
(§4) As with the S30 binding assay, this assay may be used to either identify the component binding drug, or to examine competition by unknown agents.

rat EF2 = biological target: T3, rat EF2 (Rattus norvegicus, UniProt P05197); assay: Binding assay with purified components, rat EF2; settings: yeast EF2 replaced by rat (liver) EF2
T3 construct: from tissue; host or cells: rat liver
Experimental: as §3, §4

wheat germ EF2 = assay: Binding assay with purified components, wheat germ EF2; settings: yeast EF2 replaced by wheat germ EF2
Experimental: as §3, §4

[4] = test system: S. cerevisiae sordarin sensitive strain (sS1); assay: Growth inhibition assay I, sordarin sensitive strain; format: cell-based; settings: Saccharomyces cerevisiae; 0.5 μg applied; agar plate, 30° C., 16-24 hours; read-out: clear zone of inhibition
Source text: (§5) An assay has been developed to identify antifungal compounds with sordarin like activities using S. cerevisiae as as a surrogate organism. It consists of a two plate differential zone assay using sordarin sensitive (sS1) and resistant strains (sR1) that contain an erg6 deletion, which increases membrane permeability and facilitates the uptake of various substances. In this screen, active compounds show a clear zone on the sensitive strain plate and no zone for the resistant strain plate.
(§6) Approximately 1×10^6 cells per ml are added to growth medium containing 2% agar. Medium and cells are mixed, poured into plates, and allowed to solidify. Test compounds or fermentation extracts are applied with the intent of identifying samples which inhibit the growth of these yeast. The cultures are incubated at 30° C. for 16-24 hours. A similar assay can also be run in a high-throughput microtiter format by inoculating cells into liquid growth medium containing test compounds or fermentation extracts. Active compounds can be identified by assaying for growth inhibition, which can be determined by measuring the optical density of the individual cultures.

[5] = test system: S. cerevisiae sordarin resistant strain (sR1); assay: Growth inhibition assay I, sordarin resistant strain; format: cell-based, Saccharomyces cerevisiae; settings: 0.5 μg applied; agar plate, 30° C., 16-24 hours
Source text: as §5, §6

T2 sequence (P32324 whole entry): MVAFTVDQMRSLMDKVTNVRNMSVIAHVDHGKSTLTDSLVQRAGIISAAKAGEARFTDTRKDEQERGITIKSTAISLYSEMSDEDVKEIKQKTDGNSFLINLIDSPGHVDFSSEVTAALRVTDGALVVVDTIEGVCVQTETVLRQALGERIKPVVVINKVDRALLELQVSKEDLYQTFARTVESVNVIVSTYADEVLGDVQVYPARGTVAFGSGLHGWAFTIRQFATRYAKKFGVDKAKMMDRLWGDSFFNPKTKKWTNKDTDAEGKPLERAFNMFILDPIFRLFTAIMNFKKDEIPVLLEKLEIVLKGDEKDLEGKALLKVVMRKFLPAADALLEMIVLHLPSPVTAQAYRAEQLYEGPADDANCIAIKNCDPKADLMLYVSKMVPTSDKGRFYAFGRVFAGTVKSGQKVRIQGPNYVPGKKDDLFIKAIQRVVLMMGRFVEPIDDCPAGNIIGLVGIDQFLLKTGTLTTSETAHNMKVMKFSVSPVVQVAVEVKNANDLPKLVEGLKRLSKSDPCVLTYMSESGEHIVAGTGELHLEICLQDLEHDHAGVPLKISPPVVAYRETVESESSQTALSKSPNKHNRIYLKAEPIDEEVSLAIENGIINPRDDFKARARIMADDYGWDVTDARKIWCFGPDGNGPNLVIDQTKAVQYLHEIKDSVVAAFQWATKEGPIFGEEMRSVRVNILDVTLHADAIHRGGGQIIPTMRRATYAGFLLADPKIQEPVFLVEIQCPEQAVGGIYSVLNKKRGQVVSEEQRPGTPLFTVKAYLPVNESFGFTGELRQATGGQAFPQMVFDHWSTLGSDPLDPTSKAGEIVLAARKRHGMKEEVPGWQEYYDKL
T1 sequence (P32324 whole entry): as above

| SMILES | displacement of ^3H-Compound I binding (in words) ([1]; Saccharomyces S30 extracts) | amount of labelled compound bound ([1]; 10 μg S30 extract from wild-type Saccharomyces) | binding of labelled compound (in words) ([1]; Saccharomyces S30 extracts) | binding of labelled compound (in words) [2] | binding of labelled compound (in words) (wheat germ S30 extracts) | amount of labelled compound bound ([3]; 0.65 pmol purified Saccharomyces EF2 plus 4 pmol purified Saccharomyces ribosomes) | binding of labelled compound (in words) ([3]; yeast ribosomes replaced by rat (liver) ribosomes, listed as 3H-L793,422) | binding of labelled compound (in words) ([3]; yeast ribosomes replaced by rat (liver) ribosomes, listed as labelled compound) | binding of labelled compound (in words) ([3]; yeast ribosomes replaced by wheat germ ribosomes, listed as 3H-L793,422) | binding of labelled compound (in words) ([3]; yeast ribosomes replaced by wheat germ ribosomes, listed as labelled compound) | binding of labelled compound (in words) (rat EF2; listed as 3H-L793,422) | binding of labelled compound (in words) (rat EF2; listed as labelled compound) | binding of labelled compound (in words) (wheat germ EF2; listed as 3H-L793,422) | binding of labelled compound (in words) (wheat germ EF2; listed as labelled compound) | IC50 ([1]; 10 μg S30 extract from wild-type Saccharomyces, read-out: IC50 for displacement of ^3H-Compound I binding (converted)) | zone of inhibition at 0.5 µg/disc [4] | zone of inhibition (in words) [5] |
| --- | --- | --- | --- | --- | --- | --- | --- | --- | --- | --- | --- | --- | --- | --- | --- | --- | --- |
| CC(C)COCC12CC3C(C)CCC3[C@@]3(C=O)C[C@@H]1C=C(C(C)C)[C@@]23C(=O)O (stereo partly drawn) [Compound I] | displaceable |  |  |  |  |  |  |  |  |  |  |  |  |  |  |  |  |
| CC(C)COCC12CC3C(C)CCC3[C@@]3(C=O)C[C@@H]1C=C(C(C)C)[C@@]23C(=O)O (stereo partly drawn) [^3H-Compound I] |  | approximately 0.5 pmol | Specific binding | No binding | No binding | approximately 0.6 pmol | no effect on binding | does not reduce binding | no effect on binding | does not reduce binding | abolishes binding | abolishes binding to background levels | abolishes binding | abolishes binding to background levels |  |  |  |
| CO[C@H]1[C@@H](O)[C@H](O)[C@H](OC[C@@]23C[C@@H]4[C@H](C)CC[C@H]4[C@@]4(C=O)CC2C=C(C(C)C)[C@@]34C(=O)O)O[C@@H]1C [sordarin, reference compound] | displaceable |  |  |  |  |  |  |  |  |  |  |  |  |  | 6.09 nM | 20 mm | no zone |
